# Measured values from patent US10105357B2, “Indication of antibiotic drugs for preparation of cancer inhibition pharmaceutical composition” (LAUNX BIOMEDICAL CO., LTD., priority 2014, dated 2018).
# Read-outs that look alike come from different tables or passages of the source.
# Assays:
# Format in all cases: cell-based, human
# cancer cell lines = assay: Cell viability analysis (WST-1) on cancer cell lines; conditions: drug 10 μM, 72 hours, WST-1; Table 3
# [1] = tested on: A375 (Amelanotic Melanoma); assay: Cell viability analysis, skin cancer A375; conditions: Homo sapiens, A-375, 72 h
# [2] = tested on: LoVo (Colorectal Adenocarcinoma); assay: Cell viability analysis, colon cancer LoVo; conditions: Homo sapiens, LoVo, 72 h, read-out: cell viability (survival rate), LoVo, drug 10 μM, 72 hours, WST-1, OD450 nm
# [3] = tested on: TSGH-8301 (Urinary Bladder Carcinoma); assay: Cell viability analysis, bladder cancer TSGH-8301; conditions: Homo sapiens, 72 h
# [4] = tested on: A549 (Lung Adenocarcinoma); assay: Cell viability analysis, lung cancer A549; conditions: Homo sapiens, A549, 72 h
# [5] = tested on: HL-60 (Acute Promyelocytic Leukemia); assay: Cell viability analysis, leukemia HL-60; conditions: Homo sapiens, HL-60, 72 h
# [6] = tested on: MCF7 (Mammary Gland, Adenocarcinoma); assay: Cell viability analysis, breast cancer MCF7; conditions: Homo sapiens, MCF7, 72 h
# [7] = tested on: HI650 (Lung Adenocarcinoma); assay: Cell viability analysis, lung cancer HI650; conditions: Homo sapiens, NCI-H1650, 72 h
# [8] = tested on: MKN-45 (Gastric Adenocarcinoma); assay: Cell viability analysis, gastric cancer MKN-45; conditions: Homo sapiens, MKN-45, 72 h
# [9] = tested on: HepG2 (Hepatocellular Carcinoma); assay: Cell viability analysis, hepatic cancer HepG2; conditions: Homo sapiens, HepG2, 72 h
# [10] = tested on: HeLa (Cervix Adenocarcinoma); assay: Cell viability analysis, cervical cancer HeLa; conditions: Homo sapiens, HeLa, 72 h
# [11] = tested on: PC3 (p53−) (Prostate Adenocarcinoma); assay: Cell viability analysis, prostate cancer PC3; conditions: Homo sapiens, 72 h
# [12] = tested on: AGS (Gastric Adenocarcinoma); assay: Cell viability analysis, gastric cancer AGS; conditions: Homo sapiens, 72 h
# [13] = read-out: cell viability (survival rate), A375, drug 10 μM, 72 hours, WST-1, OD450 nm
# [14] = read-out: cell viability (survival rate), TSGH, drug 10 μM, 72 hours, WST-1, OD450 nm
# [15] = read-out: cell viability (survival rate), A549, drug 10 μM, 72 hours, WST-1, OD450 nm
# [16] = read-out: cell viability (survival rate), HL-60, drug 10 μM, 72 hours, WST-1, OD450 nm
# [17] = read-out: cell viability (survival rate), MCF7, drug 10 μM, 72 hours, WST-1, OD450 nm
# [18] = read-out: cell viability (survival rate), H1650, drug 10 μM, 72 hours, WST-1, OD450 nm
# [19] = read-out: cell viability (survival rate), MKN-45, drug 10 μM, 72 hours, WST-1, OD450 nm
# [20] = read-out: cell viability (survival rate), HepG2, drug 10 μM, 72 hours, WST-1, OD450 nm
# [21] = read-out: cell viability (survival rate), HeLa, drug 10 μM, 72 hours, WST-1, OD450 nm
# [22] = read-out: cell viability (survival rate), PC3, drug 10 μM, 72 hours, WST-1, OD450 nm
# [23] = read-out: cell viability (survival rate), AGS, drug 10 μM, 72 hours, WST-1, OD450 nm
# [24] = drug 10 μM, 72 hours, WST-1, OD450 nm, read-out: cell viability (survival rate), A375
# [25] = drug 10 μM, 72 hours, WST-1, OD450 nm, read-out: cell viability (survival rate), TSGH
# [26] = drug 10 μM, 72 hours, WST-1, OD450 nm, read-out: cell viability (survival rate), A549
# [27] = drug 10 μM, 72 hours, WST-1, OD450 nm, read-out: cell viability (survival rate), HL-60
# [28] = drug 10 μM, 72 hours, WST-1, OD450 nm, read-out: cell viability (survival rate), MCF7
# [29] = drug 10 μM, 72 hours, WST-1, OD450 nm, read-out: cell viability (survival rate), H1650
# [30] = drug 10 μM, 72 hours, WST-1, OD450 nm, read-out: cell viability (survival rate), MKN-45
# [31] = drug 10 μM, 72 hours, WST-1, OD450 nm, read-out: cell viability (survival rate), HepG2
# [32] = drug 10 μM, 72 hours, WST-1, OD450 nm, read-out: cell viability (survival rate), HeLa
# [33] = drug 10 μM, 72 hours, WST-1, OD450 nm, read-out: cell viability (survival rate), PC3
# [34] = drug 10 μM, 72 hours, WST-1, OD450 nm, read-out: cell viability (survival rate), AGS
Compound,inhibition effect on different cancer cell lines (cancer cell lines),"viability at 10 µM [1, 13]",viability at 10 µM [2],"viability at 10 µM [3, 14]","viability at 10 µM [4, 15]","viability at 10 µM [5, 16]","viability at 10 µM [6, 17]","viability at 10 µM [7, 18]","viability at 10 µM [8, 19]","viability at 10 µM [9, 20]","viability at 10 µM [10, 21]","viability at 10 µM [11, 22]","viability at 10 µM [12, 23]","viability at 10 µM [1, 24]","viability at 10 µM [3, 25]","viability at 10 µM [4, 26]","viability at 10 µM [5, 27]","viability at 10 µM [6, 28]","viability at 10 µM [7, 29]","viability at 10 µM [8, 30]",also measured
CC(=O)Oc1cc(C(F)(F)F)ccc1C(=O)O [Triflusal],significant inhibition effect,95.9%,103%,86.5%,112%,93.3%,97.8%,81.3%,134%,103%,105%,87.5%,93.3%,,,,,,,,
CCS(=O)(=O)CCn1c([N+](=O)[O-])cnc1C [tinidazole],significant inhibition effect,60.6%,78.5%,112%,79.5%,89%,88%,91.1%,100%,95.5%,97.8%,85.6%,104%,,,,,,,,
"CC(=O)SCC(Cc1ccccc1)C(=O)NCC(=O)OCc1ccccc1 (stereo not drawn) [Racecadotril (Acetorphan), Racecadotril]",significant inhibition effect,,74.5%,,,,,,,,,,,66.2%,65.6%,95.8%,122%,108%,82.9%,97.4%,"viability at 10 µM [9, 31]: 88.8%; viability at 10 µM [10, 32]: 65.6%; viability at 10 µM [11, 33]: 107%; viability at 10 µM [12, 34]: 84%"
CC1(C)S[C@@H]2[C@H](NC(=O)C(C(=O)O)c3ccccc3)C(=O)N2[C@H]1C(=O)O (stereo partly drawn) [Carbenicillin disodium],significant inhibition effect,70.2%,86.2%,84.3%,53.5%,114%,59%,76.2%,84.3%,88.9%,77.8%,84.4%,62.9%,,,,,,,,
"CO[C@H]1/C=C/O[C@@]2(C)Oc3c(C)c(O)c4c(O)c(c(/C=N/N5CCN(C)CC5)c(O)c4c3C2=O)NC(=O)/C(C)=C\C=C\[C@H](C)[C@H](O)[C@@H](C)[C@@H](O)[C@@H](C)[C@H](OC(C)=O)[C@@H]1C [Rifampin (Rifadin, Rimactane), Rifampin]",significant inhibition effect,,83.9%,,,,,,,,,,,61.6%,108%,45.2%,105%,39.7%,89.1%,61.1%,"viability at 10 µM [9, 31]: 98.5%; viability at 10 µM [10, 32]: 58.8%; viability at 10 µM [11, 33]: 69.9%; viability at 10 µM [12, 34]: 111%"
Oc1c(Cl)cc(Cl)c2cccnc12 [Chloroxine],significant inhibition effect,72.5%,85.5%,62.7%,120%,50.5%,68.7%,77.1%,52.7%,93.9%,71.7%,87.2%,31.1%,,,,,,,,
